Data reported in patent publication US20250235545A1, “POLYPEPTIDE CONJUGATE AND USE THEREOF” (SHANGHAI CHIXI BIOMEDICAL TECHNOLOGY CO., LTD, priority 2024, published 2025).
Converted amounts (≈) assume the structure as drawn. Read-outs that look alike come from different tables or passages of the source. Where a SMILES comes first, the peptide text is derived from it. The star is where a group is joined. X6 = CCCCCN(CCc1c2c(nc3ccccc13)-c1cc3c(c(=O)n1C2)COC(=O)[C@]3(O)CC)*; X1 = CC[C@@]1(O)C(=O)OCc2c1cc1n(c2=O)Cc2c-1nc1ccccc1c2CCN(C1CCC1)*; X4 = CCCN(CCc1c2c(nc3ccccc13)-c1cc3c(c(=O)n1C2)COC(=O)[C@]3(O)CC)*; X3 = CC[C@@]1(O)C(=O)OCc2c1cc1n(c2=O)Cc2c-1nc1ccccc1c2CCN(C1CC1)*; Propanoyl(3-maleimido) = O=C1C=CC(=O)N1CCC(=O)*; PEG6 = NCCOCCOCCOCCOCCOCCOCCC(=O)O

Experiments:
[1] = system: A2780 ovarian cancer tumor model; experiment: Efficacy in animal model of A2780 ovarian cancer, 30 mg/kg once a week for two weeks (Example 41); format: in vivo, BALB/c mice
Protocol: Test objective: To further compare the antitumor efficacy of different polypeptide Linkers in an animal tumor model of A2780 ovarian cancer.
(§1) Test drug: Polypeptide conjugate and normal saline control group.
8×10^6 corresponding cells were injected into right axillas of nude mice subcutaneously. […] The negative control group was administered normal saline. Administration was performed once a week for two weeks.

[2] = Tumor homogenate activation efficiency, ovarian cancer tissue (Examples 28, 37); format: in vitro ADME; settings: pH 5.0, 37° C., 2 h; Table 5
Protocol: (§2) Buffer preparation: 50 mM PH buffer (MES), 250 mM NaCl, pH adjusted to 5.0 with 0.5 M of sodium hydroxide.
(§3) The polypeptide conjugate was prepared into a 1 mg/ml solution with pH 5.0 buffer, 100 μg of tumor tissue homogenate was added, (the tumor tissue homogenate was the homogenate of tumor tissues prepared with a Jingxin F6/10 handheld homogenizer), and the solution was placed at 37° C. for 2 h. The tumor tissue homogenate could effectively activate the polypeptide conjugate and release Belotecan, and the activation efficiencies of the drugs in tumor tissues were compared by high-performance liquid chromatography (HPLC) allowing determination of a decrease in the compounds and an increase in Belotecan:
(§4) Release percentage=peak area of Belotecan/total peak area of Belotecan and all other Belotecan-containing compounds
as §3, with “HPLC” for “high-performance liquid chromatography (HPLC)”, “Belotecan: […]” for “Belotecan:”

A2780 (ovarian cancer) = experiment: cells; format: cell-based; settings: CCK8, 48 h; Table 1
Method in brief: (§5)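 Viability read by CCK8 absorbance at 450 nm (~2 h stain) after 48 h drug treatment at 37° C. of 5,000 cells/well, triplicate wells, in RPMI1640 or DMEM high-glucose medium containing 10% FBS and 1 mM pyruvate. Survival relative to 0.1% DMSO controls gave IC50 values.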

SJSA-1 (sarcoma tissue) = experiment: cells; format: cell-based; settings: CCK8, 48 h; Table 1
Method in brief: as §5

[3] = system: A549 (non-small cell lung cancer); experiment: cells; format: cell-based; settings: CCK8, 48 h; Table 1
Method in brief: as §5

[4] = system: SKBR3 (breast cancer tissue); experiment: cells; format: cell-based; settings: CCK8, 48 h; Table 1
Method in brief: as §5

[5] = system: colo320 colorectal cancer tumor model
Method in brief: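 Dosing was once a week for four weeks, with saline as control, in randomized groups of three mice. Groups were formed after subcutaneous colo320 xenografts (7.5×10^6 cells, right chest) grew to ≥120 mm^3 in female 6–8-week-old BALB/c nude mice.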

[6] = system: sarcoma SJSA-1 tumor model; settings: Table 2
Method in brief: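 Female BALB/c nude mice (6-8 weeks) bearing subcutaneous right-chest SJSA-1 xenografts from 2×10^7 cells were randomized, three per group, once tumors reached at least 100 mm^3. Treatment given once a week for three weeks starting day 1; saline controls.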

[7] = Tumor homogenate activation efficiency, breast cancer tissue (Examples 28, 37); format: in vitro ADME; settings: pH 5.0, 37° C., 2 h; Table 5
Protocol: as §2, §3, §4
as §3, with “HPLC” for “high-performance liquid chromatography (HPLC)”, “Belotecan: […]” for “Belotecan:”

[8] = system: sarcoma SJSA-1 tumor model; experiment: Efficacy in animal model of sarcoma SJSA-1, 30 mg/kg once a week for two weeks (Example 40); format: in vivo, BALB/c mice; settings: 30 mg/kg once a week for two weeks
Protocol: Test objective: To further compare the antitumor efficacy of different polypeptide Linkers in an animal tumor model of sarcoma SJSA-1.
as §1
The control group was administered normal saline. Administration was performed once a week for two weeks.

[9] = Tumor homogenate activation efficiency, sarcoma tissue (Examples 28, 37); format: in vitro ADME; settings: pH 5.0, 37° C., 2 h; Table 5
Protocol: as §2, §3, §4
as §3, with “HPLC” for “high-performance liquid chromatography (HPLC)”, “Belotecan: […]” for “Belotecan:”

[10] = Tumor homogenate activation efficiency, non-small cell lung cancer tissue (Examples 28, 37); format: in vitro ADME; settings: pH 5.0, 37° C., 2 h; Table 5
Protocol: as §2, §3, §4
as §3, with “HPLC” for “high-performance liquid chromatography (HPLC)”, “Belotecan: […]” for “Belotecan:”

[11] = Tumor homogenate activation efficiency, small cell lung cancer tissue (Example 28); format: in vitro ADME; settings: pH 5.0, 37° C., 2 h; Table 5
Protocol: as §2, §3, §4

[12] = Homogenate activation efficiency, heart tissue (Examples 28, 37); format: in vitro ADME; settings: pH 5.0, 37° C., 2 h; Table 5
[13] = MTD determination in mice (Examples 27, 36, 44); format: in vivo; settings: female, mouse, in vivo; mice, monitored for 14 d; Table 4
Excerpt: Test animals: 6-8 weeks old mice, all female; mice were grouped randomly, with six mice in each group, administered with drugs at different concentration gradients separately and monitored for 14 d. A mouse was euthanized at a loss of 20% of its initial weight and deemed to have died of poisoning.

[14] = 15 mg/kg once a week for four weeks, Table 3
[15] = 45 mg/kg once a week for four weeks, Table 3
[16] = 15 mg/kg once a week for three weeks
[17] = 45 mg/kg once a week for three weeks
[18] = Table 14 (Example 43), dose 45 mg/kg, once a week for four weeks, BALB/c mice

Compound | A2780 (ovarian cancer) mean tumor volume (mm^3) Day 1 [1] [mm^3] | A2780 (ovarian cancer) mean tumor volume (mm^3) Day 4 [1] [mm^3] | A2780 (ovarian cancer) mean tumor volume (mm^3) Day 7 [1] [mm^3] | Mouse weight (%) on Day 14 [1] | Percentage of release efficiency (%) Ovarian cancer tissue (A2780) [2] [%] | IC50 A2780 (ovarian cancer) (A2780 (ovarian cancer)) [µg/mL] | IC50 SJSA-1 (sarcoma tissue) (SJSA-1 (sarcoma tissue)) [µg/mL] | IC50 A549 (non-small cell lung cancer) [3] [µg/mL] | IC50 SKBR3 (breast cancer tissue) [4] [µg/mL] | Mouse weight (%) [5, 14] | Mouse weight (%) [5, 15] | Mouse weight (%) [6, 16] | Mouse weight (%) [6, 17] | Percentage of release efficiency (%) Breast cancer tissue (SKBR3) [7] [%] | Mouse weight (%) on Day 14 [8] | Percentage of release efficiency (%) Sarcoma tissue (SJSA1) [9] [%] | Percentage of release efficiency (%) Non-small cell lung cancer tissue (A549) [10] [%] | Percentage of release efficiency (%) Small cell lung cancer tissue (NCI-H841) [11] [%] | Percentage of release efficiency (%) Heart tissue [12] [%] | MTD at 14 d [13] [mg/kg] | also measured
CCCN(CCc1c2c(nc3ccccc13)-c1cc3c(c(=O)n1C2)COC(=O)[C@]3(O)CC)C(=O)CNC(=O)[C@H](CC(N)=O)NC(=O)[C@H](C)NC(=O)[C@H](C)NC(=O)CCOCCOCCOCCOCCOCCOCCNC(=O)CCN1C(=O)C=CC1=O [MI-6PEG-AANG-D3] ({Propanoyl(3-maleimido)-PEG6}-AANG-X4) | 138.55 | 302.74 | 742.51 | +11.4% | 76.2 | 1.80 (≈ 1.46 µM) | 1.63 (≈ 1.32 µM) | 3.41 (≈ 2.76 µM) | 2.42 (≈ 1.96 µM) | +31% | +20% | +29% | +26% | 84.6 | +3.6% | 88.9 | 82.6 | 71.2 | 3.6 | 350 | A2780 (ovarian cancer) mean tumor volume (mm^3) Day 10 [1]: 898.06 mm^3; A2780 (ovarian cancer) mean tumor volume (mm^3) Day 14 [1]: 1141.65 mm^3; Growth rate (%) of A2780 (ovarian cancer) on Day 14 [1]: 824.00%; colo320 (colorectal cancer cell) growth rate (%) [5, 14]: 985.14%; colo320 (colorectal cancer cell) mean tumor volume (mm^3) [5, 14]: 1091.1 mm^3; colo320 (colorectal cancer cell) growth rate (%) [5, 15]: 481.06%; colo320 (colorectal cancer cell) mean tumor volume (mm^3) [5, 15]: 532.8 mm^3; SJSA-1 (sarcoma tissue) mean tumor volume (mm^3) [6, 16]: 1325.4 mm^3; SJSA-1 (sarcoma) Growth rate (%) [6, 16]: 1095.4%; SJSA-1 (sarcoma tissue) mean tumor volume (mm^3) [6, 17]: 1098.2 mm^3; SJSA-1 (sarcoma) Growth rate (%) [6, 17]: 930.68%; SJSA-1 (sarcoma tissue) mean tumor volume (mm^3) Day 1 [8]: 132.12 mm^3; SJSA-1 (sarcoma tissue) mean tumor volume (mm^3) Day 4 [8]: 360.28 mm^3; SJSA-1 (sarcoma tissue) mean tumor volume (mm^3) Day 7 [8]: 610.04 mm^3; SJSA-1 (sarcoma tissue) mean tumor volume (mm^3) Day 10 [8]: 833.76 mm^3; SJSA-1 (sarcoma tissue) growth rate (%) on Day 14 [8]: 1002.12%; SJSA-1 (sarcoma tissue) mean tumor volume (mm^3) Day 14 [8]: 1324.00 mm^3
CC[C@@]1(O)C(=O)OCc2c1cc1n(c2=O)Cc2c-1nc1ccccc1c2CCN(C(=O)CNC(=O)[C@H](CC(N)=O)NC(=O)[C@H](C)NC(=O)[C@H](C)NC(=O)CCOCCOCCOCCOCCOCCOCCNC(=O)CCN1C(=O)C=CC1=O)C1CCC1 [MI-6PEG-AANG-D7] ({Propanoyl(3-maleimido)-PEG6}-AANG-X1) | – | – | – | +15.6% | 84.5 | 1.21 (≈ 0.972 µM) | 0.53 (≈ 0.426 µM) | 1.89 (≈ 1.52 µM) | 2.64 (≈ 2.12 µM) | +26% | +31% | +31% | +26% | 78.8 | +1.6% | 64.3 | 77 | 66.1 | 2 | 250 | Mouse weight (%) [5, 18]: +31%
CC[C@@]1(O)C(=O)OCc2c1cc1n(c2=O)Cc2c-1nc1ccccc1c2CCN(C(=O)CNC(=O)[C@H](CC(N)=O)NC(=O)[C@H](C)NC(=O)[C@H](C)NC(=O)CCOCCOCCOCCOCCOCCOCCNC(=O)CCN1C(=O)C=CC1=O)C1CC1 [MI-6PEG-AANG-D6] ({Propanoyl(3-maleimido)-PEG6}-AANG-X3) | – | – | – | +8.5% | 75.9 | 0.77 (≈ 0.625 µM) | 0.49 (≈ 0.398 µM) | 1.55 (≈ 1.26 µM) | 1.81 (≈ 1.47 µM) | +27% | +17% | +24% | +3% | 82.1 | −0.6% | 79.9 | 73.1 | 76 | 2.5 | 200 | Mouse weight (%) [5, 18]: +17%
CCCCCN(CCc1c2c(nc3ccccc13)-c1cc3c(c(=O)n1C2)COC(=O)[C@]3(O)CC)C(=O)CNC(=O)[C@H](CC(N)=O)NC(=O)[C@H](C)NC(=O)[C@H](C)NC(=O)CCOCCOCCOCCOCCOCCOCCNC(=O)CCN1C(=O)C=CC1=O [MI-6PEG-AANG-D4] ({Propanoyl(3-maleimido)-PEG6}-AANG-X6) | 138.58 | 278.49 | 624.53 | +9.6% | 86.7 | 4.88 (≈ 3.87 µM) | 2.52 (≈ 2 µM) | 6.37 (≈ 5.05 µM) | 4.54 (≈ 3.6 µM) | +40% | +18% | +27% | +26% | 80.7 | +4.1% | 72.4 | 78.7 | 67.2 | 2.4 | 350 | A2780 (ovarian cancer) mean tumor volume (mm^3) Day 10 [1]: 791.18 mm^3; A2780 (ovarian cancer) mean tumor volume (mm^3) Day 14 [1]: 977.54 mm^3; Growth rate (%) of A2780 (ovarian cancer) on Day 14 [1]: 705.40%; colo320 (colorectal cancer cell) growth rate (%) [5, 14]: 870.11%; colo320 (colorectal cancer cell) mean tumor volume (mm^3) [5, 14]: 963.7 mm^3; colo320 (colorectal cancer cell) growth rate (%) [5, 15]: 544.80%; colo320 (colorectal cancer cell) mean tumor volume (mm^3) [5, 15]: 603.4 mm^3; SJSA-1 (sarcoma tissue) mean tumor volume (mm^3) [6, 16]: 1305.6 mm^3; SJSA-1 (sarcoma) Growth rate (%) [6, 16]: 1081.87%; SJSA-1 (sarcoma tissue) mean tumor volume (mm^3) [6, 17]: 994.5 mm^3; SJSA-1 (sarcoma) Growth rate (%) [6, 17]: 842.80%; SJSA-1 (sarcoma tissue) mean tumor volume (mm^3) Day 1 [8]: 131.57 mm^3; SJSA-1 (sarcoma tissue) mean tumor volume (mm^3) Day 4 [8]: 385.46 mm^3; SJSA-1 (sarcoma tissue) mean tumor volume (mm^3) Day 7 [8]: 607.62 mm^3; SJSA-1 (sarcoma tissue) mean tumor volume (mm^3) Day 10 [8]: 847.33 mm^3; SJSA-1 (sarcoma tissue) growth rate (%) on Day 14 [8]: 941.81%; SJSA-1 (sarcoma tissue) mean tumor volume (mm^3) Day 14 [8]: 1239.14 mm^3
